The record followed here is PubChem BioAssay AID328 (DTP/NCI, 2004).

This test has as its system BDF1 mice, P388 leukemia ip, median survival T/C. In words: NCI In Vivo Anticancer Drug Screen. Data for tumor model P388 Leukemia (intraperitoneal) in B6D2F1 (BDF1) mice. The settings on record: endpoint: median survival time, higher = longer survival. In outline:
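Mice carrying the transplantable tumour receive compound or vehicle. Survival is followed in each arm, and the treated measure is divided by the vehicle measure.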

Setting [1] is: dose: 100.0 mg/kg/injection, schedule: Q04DX003 (ip), vehicle: Klucel (hydroxypropylcellulose) (HPC).
[2] abbreviates: dose: 200.0 mg/kg/injection, schedule: Q04DX003 (ip), vehicle: Klucel (hydroxypropylcellulose) (HPC).
The mark [3] stands for this setting: dose: 400.0 mg/kg/injection, schedule: Q04DX003 (ip), vehicle: Klucel (hydroxypropylcellulose) (HPC).
The mark [4] stands for this setting: dose: 25.0 mg/kg/injection, schedule: Q01DX009 (ip), vehicle: Klucel (hydroxypropylcellulose) (HPC).
The mark [5] stands for this setting: dose: 50.0 mg/kg/injection, schedule: Q01DX009 (ip), vehicle: Klucel (hydroxypropylcellulose) (HPC).
The mark [6] stands for this setting: dose: 100.0 mg/kg/injection, schedule: Q01DX009 (ip), vehicle: Klucel (hydroxypropylcellulose) (HPC).
[7] abbreviates: dose: 50.0 mg/kg/injection, schedule: Q01DX009 (ip), vehicle: saline with Tween-80.
Where [8] appears, read: dose: 100.0 mg/kg/injection, schedule: Q01DX009 (ip), vehicle: saline with Tween-80.
Setting [9] is: dose: 200.0 mg/kg/injection, schedule: Q01DX009 (ip), vehicle: saline with Tween-80.
Setting [10] is: dose: 400.0 mg/kg/injection, schedule: Q01DX009 (ip), vehicle: saline with Tween-80.
Setting [11] is: dose: 12.5 mg/kg/injection, schedule: Q01DX009 (ip), vehicle: saline with Tween-80.
The mark [12] stands for this setting: dose: 25.0 mg/kg/injection, schedule: Q01DX009 (ip), vehicle: saline with Tween-80.
[13] abbreviates: dose: 100.0 mg/kg/injection, schedule: Q01DX009 (ip), vehicle: saline.
Setting [14] is: dose: 200.0 mg/kg/injection, schedule: Q01DX009 (ip), vehicle: saline.
Where [15] appears, read: dose: 400.0 mg/kg/injection, schedule: Q01DX009 (ip), vehicle: saline.
[16] abbreviates: dose: 100.0 mg/kg/injection, schedule: Q04DX003 (ip), vehicle: saline with Tween-80.
Where [17] appears, read: dose: 200.0 mg/kg/injection, schedule: Q04DX003 (ip), vehicle: saline with Tween-80.
[18] abbreviates: dose: 400.0 mg/kg/injection, schedule: Q04DX003 (ip), vehicle: saline with Tween-80.
The mark [19] stands for this setting: dose: 100.0 mg/kg/injection, schedule: Q04DX003 (ip), vehicle: saline.
Setting [20] is: dose: 200.0 mg/kg/injection, schedule: Q04DX003 (ip), vehicle: saline.
[21] abbreviates: dose: 400.0 mg/kg/injection, schedule: Q04DX003 (ip), vehicle: saline.
The mark [22] stands for this setting: dose: 12.5 mg/kg/injection, schedule: Q04DX003 (ip), vehicle: saline with Tween-80.
Setting [23] is: dose: 25.0 mg/kg/injection, schedule: Q04DX003 (ip), vehicle: saline with Tween-80.
Where [24] appears, read: dose: 50.0 mg/kg/injection, schedule: Q04DX003 (ip), vehicle: saline with Tween-80.

Several values for one entry are separate records, joined by “and”; a condition that tells them apart may be missing. Equal values may be shown once. Inconclusive results and toxic doses are left out.

For `CCCCCCCCCCCCCCCCCC(N)=O`, the T/C runs as follows: under setting [1], 90 % of control; under setting [2], 95 % of control; under setting [3], 100 % of control.
On to `O=C1C(c2ccccc2)=S=C2Sc3ccccc3N12`, for which the T/C was 100 % of control under setting [4]; 90 % of control (dose: 25.0 mg/kg/injection, schedule: Q04DX003 (ip), vehicle: Klucel (hydroxypropylcellulose) (HPC)); 110 % of control under setting [5]; 90 % of control (dose: 50.0 mg/kg/injection, schedule: Q04DX003 (ip), vehicle: Klucel (hydroxypropylcellulose) (HPC)); 105 % of control under setting [6]; 100 % of control under setting [1].
Turning to `c1ccc(NNc2c3ccccc3nc3ccccc23)cc1`, the T/C reads like this: under setting [7], 102 % of control; under setting [8], 102 % of control.
As to `CC12CCC(Cl)CC1=CCC1C2CCC2(C)C1CCCN2CCCl` (stereo unspecified), the T/C is, setting by setting: (dose: 12.5 mg/kg/injection, schedule: Q01DX001 (ip), vehicle: saline with Tween-80) 105 % of control; (dose: 12.5 mg/kg/injection, schedule: Q01DX001 (ip), vehicle: saline) 102 % of control; (dose: 25.0 mg/kg/injection, schedule: Q01DX001 (ip), vehicle: saline with Tween-80) 113 % of control; (dose: 25.0 mg/kg/injection, schedule: Q01DX001 (ip), vehicle: saline) 117 % of control.
As to `COc1ccccc1C(=O)C(O)c1ccccc1OC` (stereo unspecified), the T/C runs as follows: under setting [1], 95 % of control; under setting [2], 104 % of control; under setting [3], 108 % of control.
For the compound `Cc1[nH]ncc1Br`, the T/C is 105 % of control under setting [8], 98 % of control under setting [9] and 105 % of control under setting [10].
In the case of `CC1CCCCC1(O)CSc1ccccc1` (stereo unspecified), the T/C was 100 % of control and 106 % of control under setting [11]; 102 % of control and 116 % of control under setting [12]; 103 % of control and 113 % of control under setting [7]; 116 % of control (2×) and 124 % of control under setting [8]; 101 % of control under setting [9].
`c1ccc2c(c1)Cn1c-2nc2ccccc21`: the T/C was 118 % of control (dose: 100.0 mg/kg/injection, schedule: Q04DX003 (ip), vehicle: other); 109 % of control (dose: 200.0 mg/kg/injection, schedule: Q04DX003 (ip), vehicle: other); 113 % of control (dose: 400.0 mg/kg/injection, schedule: Q04DX003 (ip), vehicle: other).
As for `NOc1ccc([N+](=O)[O-])cc1[N+](=O)[O-]`, the T/C reads like this: (dose: 6.25 mg/kg/injection, schedule: Q01DX009 (ip), vehicle: Klucel (hydroxypropylcellulose) (HPC)) 115 % of control; (dose: 12.5 mg/kg/injection, schedule: Q01DX009 (ip), vehicle: Klucel (hydroxypropylcellulose) (HPC)) 95 % of control; (dose: 16.5 mg/kg/injection, schedule: Q01DX009 (ip), vehicle: Klucel (hydroxypropylcellulose) (HPC)) 113 % of control; under setting [4], 103 % of control and 113 % of control.
Turning to `CCN(CC)c1ccc(Cc2ccc(N(CC)CC)cc2Br)c(Br)c1`, the T/C is, setting by setting: under setting [1], 111 % of control; under setting [2], 111 % of control; under setting [3], 111 % of control.
Regarding `C[Si](C)(C)OC/C=C\CO[Si](C)(C)C`, the T/C is 100 % of control under setting [13], 108 % of control under setting [14] and 108 % of control under setting [15].
For the compound `COc1ccc(CNCCNCCNCc2ccc(OC)cc2)cc1`, the T/C under setting [12] was 87 % of control; the T/C under setting [7] is 105 % of control; the T/C under setting [8] was 101 % of control and 105 % of control; the T/C under setting [16] was 122 % of control; the T/C under setting [9] is 93 % of control; the T/C under setting [17] was 111 % of control. In addition, the T/C is, setting by setting: under setting [10], 101 % of control; under setting [18], 122 % of control.
Turning to `O=C1c2ccccc2C(=O)N1CNc1cccc(NCN2C(=O)c3ccccc3C2=O)c1`, the T/C was 100 % of control (dose: 100.0 mg/kg/injection, schedule: Q01DX001 (ip), vehicle: saline); 104 % of control under setting [19]; 100 % of control (dose: 200.0 mg/kg/injection, schedule: Q01DX001 (ip), vehicle: saline); 104 % of control under setting [20]; 90 % of control (dose: 400.0 mg/kg/injection, schedule: Q01DX001 (ip), vehicle: saline); 100 % of control under setting [21].
As to `C1CC[N-]CC1.C1CC[N-]CC1.[I][Pt+2][I]`, the T/C is, setting by setting: under setting [5], 93 % of control; under setting [6], 93 % of control.
Turning to `COc1ccccc1NC(=O)c1ccc(Cl)cc1Cl`, the T/C under setting [4] is 116 % of control; the T/C under setting [5] was 122 % of control; the T/C under setting [6] is 122 % of control; the T/C under setting [1] was 100 % of control; the T/C (dose: 200.0 mg/kg/injection, schedule: Q01DX009 (ip), vehicle: Klucel (hydroxypropylcellulose) (HPC)) was 104 % of control; the T/C under setting [2] was 95 % of control. Further, the T/C is 104 % of control (dose: 400.0 mg/kg/injection, schedule: Q01DX009 (ip), vehicle: Klucel (hydroxypropylcellulose) (HPC)) and 104 % of control under setting [3].
For the compound `CC1CCC(NC2=NCCO2)C(C)C1` (stereo unspecified), the T/C was 95 % of control under setting [22], 100 % of control under setting [23] and 100 % of control under setting [24].
As to `NCC(=O)O`, the T/C under setting [13] is 95 % of control; the T/C under setting [19] was 100 % of control; the T/C under setting [14] is 104 % of control; the T/C under setting [20] was 95 % of control; the T/C under setting [15] is 95 % of control; the T/C under setting [21] was 95 % of control.
As for `COc1ccc(/C(C#N)=C2C=C/C(=N\O)C(C)=C/2Cl)cc1`, the T/C by setting is: under setting [22], 91 % of control; under setting [23], 91 % of control; under setting [24], 87 % of control.
Turning to `N#Cc1ncc(C(Cl)(Cl)Cl)nc1Cl`, the T/C reads like this: under setting [7], 110 % of control; under setting [24], 105 % of control; under setting [8], 120 % of control; under setting [16], 115 % of control and 118 % of control; under setting [17], 120 % of control.
In the case of `CCc1cc(O)c(Cl)c(C)c1Cl`, the T/C is 119 % of control (dose: 50.0 mg/kg/injection, schedule: Q01DX009 (ip), vehicle: gum acacia); 111 % of control (dose: 50.0 mg/kg/injection, schedule: Q04DX003 (ip), vehicle: gum acacia); 111 % of control (dose: 100.0 mg/kg/injection, schedule: Q01DX009 (ip), vehicle: gum acacia); 100 % of control (dose: 100.0 mg/kg/injection, schedule: Q04DX003 (ip), vehicle: gum acacia); 100 % of control (dose: 200.0 mg/kg/injection, schedule: Q04DX003 (ip), vehicle: gum acacia).
With `O=C(NCc1cnccn1)c1ccccc1Cl`, the T/C under setting [16] is 92 % of control, the T/C under setting [17] was 104 % of control and the T/C under setting [18] was 100 % of control.
`CCC[CH2][Sn]([CH2]CCC)([O]C(C)=O)[O]C(C)=O`: the T/C by setting is: (dose: 3.12 mg/kg/injection, schedule: Q01DX009 (ip), vehicle: saline with Tween-80) 114 % of control; (dose: 6.12 mg/kg/injection, schedule: Q01DX009 (ip), vehicle: saline) 154 % of control; (dose: 6.25 mg/kg/injection, schedule: Q01DX009 (ip), vehicle: saline with Tween-80) 151 % of control; under setting [11], 86 % of control; (dose: 12.5 mg/kg/injection, schedule: Q01DX009 (ip), vehicle: saline) 156 % of control.
On to `CCCC(CCC)(C(N)=O)C(=O)O`, for which the T/C by setting is: (dose: 50.0 mg/kg/injection, schedule: Q01DX001 (ip), vehicle: Klucel (hydroxypropylcellulose) (HPC)) 94 % of control; (dose: 100.0 mg/kg/injection, schedule: Q01DX001 (ip), vehicle: Klucel (hydroxypropylcellulose) (HPC)) 100 % of control; (dose: 200.0 mg/kg/injection, schedule: Q01DX001 (ip), vehicle: Klucel (hydroxypropylcellulose) (HPC)) 122 % of control.
